How the values were obtained:
[1] = test system: Colo320 human tumour cells; assay: Tumour colony formation in semi-solid agar medium; assay type: cell-based; conditions: for number of colonies formed: 50 μg/ml, 10 days post-seeding (FIG. 9)
Description: In order to determine whether the ITAC-B1 antibody has a neutralizing activity on the formation of tumour colonies in vitro, tests for tumour colony formation in vitro in a semi-solid agar medium containing agar were carried out. The principle of this test is based on bringing Colo320 human tumour cells (which express NRP-2 at their membrane surface and, furthermore, naturally secrete VEGF into the culture medium) into contact with the ITAC-B1 antibody. 4000 Colo320 cells are seeded into each well of a 24-well plate, in a semi-solid medium containing agar, and in the presence of 10 μg/ml of anti-NRP-2 antibody ITAC-B1. By way of comparison, the same test is carried out in the presence of cytotoxic agents with a proven action, i.e. 5-fluorouracil (5-FU), used at a rate of 50 μg/ml, or of Avastin® (bevacizumab: humanized monoclonal antibodies directed against VEGF), used at a rate of 50 μg/ml, or in the presence of a control isotype antibody (mouse IgG1 monoclonal antibody (BZ1)), used at a rate of 10 μg/ml.
At 10 days post-seeding, the colonies were counted under an optical microscope.
Since neuropilin-2 is a coreceptor for VEGF, it was verified whether the activity of ITAC-B1 was dependent on an interaction between NRP-2 and the VEGF produced by the Colo320 cells. With this aim, the tests for Colo320-cell colony formation were carried out under the conditions described above, and in the presence of ITAC-B1 antibody (10 μg/ml), of bevacizumab (50 μg/ml) or of control antibody (10 μg/ml), used separately or in combination.
The results are given in FIG. 10: the y-axis represents the number of colonies formed; on the x-axis, the antibodies present in the culture medium are indicated by a “+”.

Colo320siRNA-ctrl cells = assay: Annexin V-APC apoptosis test with or without PFTα pretreatment; assay type: cell-based, human; conditions: PFTα 27 μM, 18 h pretreatment
Description: In order to correlate the induction of apoptosis with p53 expression, the Colo320siRNA-ctrl cells were pretreated for 18 h with a chemical inhibitor of p53, pifithrin-α, at a dose of 27 μM (PFTα, Sigma). After pretreatment, the cells are washed twice with 3 ml of PBS and placed in a 24-well plate, at a rate of 100 000 cells/well in 1 ml of RPMI-10% FCS. Non-pretreated cells are placed under the same conditions. The cells are incubated for 5 h with a control murine isotype antibody (BZ1) or ITAC-B1 at 20 μg/ml and the apoptosis is measured as described above.
FIG. 14 represents the results of the apoptosis-induction experiments carried out with the Colo320siRNA-ctrl cells pretreated or not pretreated with PFTα. The percentage of cells labelled with Annexin V-APC is indicated on the y-axis, the cell culture conditions are indicated on the x-axis (control consisting of medium, control consisting of medium supplemented with a control isotype antibody -BZ1-, test consisting of medium supplemented with the ITAC-B1 antibody). The results of the tests carried out with cells pretreated with PFTα are represented in light grey, those of the tests carried out with non-pretreated cells are represented in dark grey.

mutant p53 proteins = conditions: model of human xenograft; review Levesque & Eastman 2007; cited from earlier work
HT29-NRP-2 tumour cells = assay: HT29-NRP-2 subcutaneous xenograft, tumour volume; assay type: in vivo, immunodeficient mice; conditions: group C: 5-FU intraperitoneally 20 mg/kg D0 to D4, 100 mg/kg at D9
Description: HT29-NRP-2 tumour cells were injected subcutaneously into 20 immunodeficient mice, at a rate of 1×10^6 cells per mouse, in the right flank. 10 days after the injection, the tumours measure approximately 5 mm×5 mm.
In accordance with the protocol described above, group B was inoculated with ITAC-B1 at D0 (12 mg/kg), D3 (6 mg/kg), D7 (12 mg/kg) and D10 (6 mg/kg). Group C was inoculated with 20 mg/kg of 5-FU from D0 to D4 and then with 100 mg/kg at D9. Group D was inoculated with ITAC-B1 at D0 (12 mg/kg), D3 (6 mg/kg), D7 (12 mg/kg) and D10 (6 mg/kg) and with 20 mg/kg of 5-FU from D0 to D4 and 100 mg/kg of 5-FU at D9.
The tumours were measured twice a week, and the volume of the tumours was calculated with the formula: V (mm^3)=d^2×D/2.
FIG. 21 represents the tumour volume as a function of time. Group A (PBS control) is represented by (⋄), group B (mice inoculated with the ITAC-B1 antibody) is represented by (▪), group C (mice inoculated with 5-FU) is represented by (Δ), and group D (mice inoculated both with the ITAC-B1 antibody and with 5-FU) is represented by (x).

HT29-NRP-2 cells = assay: Annexin V-APC apoptosis test; assay type: cell-based, human; conditions: selection criterion of the hybridoma clones
Description: In order to determine the ability of the ITAC-B1 antibody to induce apoptosis of tumour cells expressing NRP-2, an in vitro Annexin V-APC apoptosis test was carried out (BD Pharmingen, San Diego, Calif.). This test is based on the externalization of phosphatidylserin by apoptotic cells and on the binding of Annexin V-APC to this molecule.
1 ml of DMEM medium containing 10% of inactivated FCS and 100 000 HT29-NRP-2 cells or 100 000 HT29ctrl cells were seeded, per well, into a 24-well Nunc plate. […] In parallel, “cells alone” controls were carried out, as were negative controls (anti-human mouse IgG1 antibody (BZ1) at the same concentrations as the ITAC-B1 antibody).
[…] When the cells began to detach, 500 μl of DMEM medium-10% FCS were added per well. The cells were then centrifuged, washed twice in PBS, and then taken up in 300 μl of 1× binding buffer (provided in the kit), and then 5 μl of Annexin V-APC were subsequently added to 100 μl of this solution.
The panels of FIG. 13 are point-cloud representations of the flow cytometry analysis. For each of the panels, the fluorescence intensity (corresponding to the labelling of the cells with Annexin V-APC) is represented on the x-axis. The y-axis indicates the granulosity of the cells (Side Scatter or SSC). […] The percentage of cells labelled with Annexin V-APC (corresponding to the percentage of cells having entered into apoptosis) is indicated at the bottom-right of each panel.
The apoptosis induced was then measured by labelling with Annexin V-APC as described above.
The panels of FIG. 15 are point-cloud representations of the flow cytometry analysis. For each of the panels, the fluorescence intensity (corresponding to the labelling of the cells with Annexin V-APC) is represented on the x-axis. The y-axis indicates the granulosity (side scatter) of the cells. The conditions of treatment with the antibodies and the Avastin® are indicated to the left of the panels. The percentage of cells labelled with the Annexin V-APC, corresponding to the percentage of cells having entered into apoptosis, is indicated at the top-right of each panel.

p53 protein = assay: Western blotting of p53 expression after antibody treatment; assay type: cell-based, human; conditions: HT29-NRP-2 and Colo320^siRNA-ctrl; 20 ng/ml, 48 hours
Description: The HT29, HT29-NRP-2, Colo320^siRNA-ctrl tumour cells and Colo320^siRNA-NRP-2 were exposed to 20 ng/ml of ITAC-B1 antibody or of control antibody, and cultured for 48 hours. After lysis of the cell lines, migration of the protein pellets obtained on a 10% polyacrylamide gel (10 μg of protein per well) and then transfer onto a PVDF membrane, the membrane was incubated overnight with the anti-p53 primary antibody (BD Biosciences, mouse anti-human p53) diluted to 1/500. After washing in TBS/0.1% Tween20, the membranes were incubated for 1 hour with an anti-mouse IgG-HRP secondary antibody diluted to 1/6000. The results are represented in FIG. 19.

bevacizumab [Avastin®]
number of colonies formed [1]: approximately 120 | effect on the proliferation of the Colo320 cells (number of colonies) ([1]; bevacizumab 50 μg/ml (FIG. 10)): very little effect

Cc1ccc(C(=O)Cn2c3c(sc2=N)CCCC3)cc1 [PFTα, pifithrin-α, reference compound]
effect of pretreatment on ITAC-B1-dependent apoptosis (Colo320siRNA-ctrl cells): prevents the ITAC-B1-dependent apoptosis

CCC(=O)OCN1C(=O)C=CC1=O [MIRA-1]
tumour growth (mutant p53 proteins): successfully used to inhibit tumour growth

COc1ccc(/C=C/c2nc(NCCCN(C)C)c3ccccc3n2)cc1 [CP-31398]
tumour growth (mutant p53 proteins): successfully used to inhibit tumour growth

O=c1[nH]cc(F)c(=O)[nH]1 [5-FU, 5-fluorouracil, reference compound]
tumour volume (HT29-NRP-2 tumour cells): reduction in tumour volume is observed starting from D14 | number of colonies formed [1]: approximately 40

O=C1C2CCN(CC2)C1(CO)CO [PRIMA-1]
tumour growth (mutant p53 proteins): successfully used to inhibit tumour growth

B1: ITAC-B2: anti-human neuropilin-2 monoclonal antibody, VH SEQ ID No. 6, VL SEQ ID No. 8 (antibody, listed as Mus musculus, V domains shown)
VH: EVQLEESGGGLVKPGGSLKLSCAASGFTFSDYYMYWVRQTPEKRLEWVATISDGGSYTYYPDSIKGRFTISRDNARNNLYLQMSSLKSEDTAMYYCARGGPYRSWFAFWGQGTLVTVSA
VL: DIVITQTPLSLPVSLGDQASISCRSSQSIVYSNGNTYLEWYLQKPGQSPKLLIYKVSNRFSGVPDRFSGSGSGTDFTLKISRVEAEDLGVYYCFQGSHVPPTFGGGTKLEIK
ability to induce apoptosis of tumour cells expressing neuropilin-2 (selection of clones) (HT29-NRP-2 cells): ability to induce apoptosis of tumour cells expressing neuropilin-2 | expression of p53 in lines which express NRP-2 (p53 protein): have the Ability to Induce Expression of the p53 Protein

From patent publication US8722043B2, “Induction of p53 expression by neutralization of neuropilin-2 for the treatment of cancers” (Diaclone, priority 2008, dated 2014)
